The values below are quoted from earlier work in patent publication US8742076B2, “Nemorubicin metabolite and analog reagents, antibody-drug conjugates and methods” (Genentech, Inc., priority 2008, dated 2014).

Molecules are shown by their SMILES.

For series [1] the following is noted: comparison with nemorubicin and doxorubicin.

Regarding `COc1cccc2c1C(=O)c1c(O)c3c(c(O)c1C2=O)C[C@@](O)(C(=O)CO)C[C@@H]3O[C@H]1C[C@H]2[C@H](O[C@@H]3[C@@H](OC)OCCN32)[C@H](C)O1` [PNU (159682), 3′-deamino-3″,4′-anhydro-[2″(S)-methoxy-3″(R)-oxy-4″-morpholinyl]doxorubicin], the “cytotoxicity in vitro compared with nemorubicin and doxorubicin” value in series [1] was “remarkably more cytotoxic than nemorubicin and doxorubicin”. The “efficacy in in vivo tumor models” value in the series with tumor models was “effective”.
